Assay results reported in publication PMC7932521, “2-aminobenzimidazoles for leishmaniasis: From initial hit discovery to in vivo profiling” (PLoS Neglected Tropical Diseases, 2021).
Like-named read-outs stand apart in the source and are kept apart here.

What was measured:
D2L [1] = biological target: T1, D2L (Homo sapiens, UniProt P14416); assay: Bioprofiling 6pt Antag D2L CHO; format: cell-based; conditions: antagonist readout vs Quinpirole
T1 construct: expressed in transfected cells; host or cells: CHO
T1 sequence (P14416 whole entry): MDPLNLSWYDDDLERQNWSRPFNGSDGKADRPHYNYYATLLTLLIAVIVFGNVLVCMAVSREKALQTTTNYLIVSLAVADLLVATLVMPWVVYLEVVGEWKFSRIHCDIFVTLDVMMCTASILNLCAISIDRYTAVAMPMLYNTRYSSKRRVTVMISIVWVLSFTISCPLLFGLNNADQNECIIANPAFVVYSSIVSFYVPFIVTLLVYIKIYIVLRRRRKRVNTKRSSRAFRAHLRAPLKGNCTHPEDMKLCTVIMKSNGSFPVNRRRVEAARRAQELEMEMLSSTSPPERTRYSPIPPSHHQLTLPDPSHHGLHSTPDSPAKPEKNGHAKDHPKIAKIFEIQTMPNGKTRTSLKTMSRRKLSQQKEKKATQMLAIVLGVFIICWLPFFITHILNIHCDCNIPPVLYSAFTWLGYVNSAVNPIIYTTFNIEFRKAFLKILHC
Method: (§1) The compounds were evaluated across a panel of 20 liability targets (37 functional assays) which included functional cell-based GPCRs and ion channels in both agonist and antagonist readout, measuring calcium flux and biochemical functional assays for nuclear hormone receptors and phosphodiesterases using TR-FRET format, in a 6 point 1:3 dilution dose series (maximum final concentration of 10 μM).

M2 = biological target: T2, M2 (Homo sapiens, UniProt P08172); assay: Bioprofiling 6pt Antag M2 CHO; format: cell-based; conditions: antagonist readout vs Carbachol
T2 construct: expressed in transfected cells; host or cells: CHO
T2 sequence (P08172 1-466): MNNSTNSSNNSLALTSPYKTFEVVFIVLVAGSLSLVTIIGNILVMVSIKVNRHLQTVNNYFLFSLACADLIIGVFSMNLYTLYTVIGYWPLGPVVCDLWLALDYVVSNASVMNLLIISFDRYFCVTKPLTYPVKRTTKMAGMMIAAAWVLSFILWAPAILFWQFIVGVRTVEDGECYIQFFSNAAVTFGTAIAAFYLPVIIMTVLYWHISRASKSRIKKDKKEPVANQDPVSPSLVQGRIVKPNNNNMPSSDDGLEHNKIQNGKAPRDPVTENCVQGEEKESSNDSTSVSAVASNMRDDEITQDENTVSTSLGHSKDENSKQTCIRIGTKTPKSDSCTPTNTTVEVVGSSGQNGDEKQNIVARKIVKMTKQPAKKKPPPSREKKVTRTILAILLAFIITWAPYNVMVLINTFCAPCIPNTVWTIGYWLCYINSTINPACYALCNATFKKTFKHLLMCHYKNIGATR
Method: as §1

D2L [2] = biological target: T1, D2L; assay: Bioprofiling 6pt Ag D2L CHO; format: cell-based; conditions: agonist readout
Method: as §1

[3] = Human liver microsomal stability; format: in vitro ADME; conditions: liver microsomes, pH 7.4; human liver microsome; read-out: HLM Clint
Method: The metabolic stability of the compounds was evaluated in human (pool of 200 donors, XenoTech) and mouse liver microsomes (CD1 mouse, GIBCO). Test compounds were prepared at a concentration of 0.5 μM and incubated with 0.25 mg/mL liver microsomes at pH 7.4 and 37°C. The reaction was started by addition of NADPH at […]. Samples were taken at 0, 5, 10, 15, 20 and 30 minutes. The reaction was stopped by the addition of acetonitrile:methanol (1:1) containing an internal standard (tolbutamide at 50 nM). Compounds were quantified by liquid chromatography triple quadrupole mass spectrometry (LC-MS/MS). Peak area ratios (analyte/internal standard) were converted to % remaining using the area ratio at time 0 as 100%. Half-life (t1/2 = ln(2)/k) in minutes and intrinsic clearance (Clint = k x 1000/(0.25)) in μL/min/mg were calculated using a non-linear regression from % remaining versus incubation time. From this plot, the slope (k) was determined. The analysis conditions were: analytical column (Gemini C18, […], Phenomenex), electrospray ionization source (ESI) in positive and negative mode, mobile phase A (water + 0.1% formic acid) and B (acetonitrile + 0.1% formic acid), flow rate of 0.7 mL/min.

H1 = biological target: T3, H1 (Homo sapiens, UniProt P35367); assay: Bioprofiling 6pt Antag H1 CHO; format: cell-based; conditions: antagonist readout vs Histamine
T3 construct: expressed in transfected cells; host or cells: CHO
T3 sequence (P35367 whole entry): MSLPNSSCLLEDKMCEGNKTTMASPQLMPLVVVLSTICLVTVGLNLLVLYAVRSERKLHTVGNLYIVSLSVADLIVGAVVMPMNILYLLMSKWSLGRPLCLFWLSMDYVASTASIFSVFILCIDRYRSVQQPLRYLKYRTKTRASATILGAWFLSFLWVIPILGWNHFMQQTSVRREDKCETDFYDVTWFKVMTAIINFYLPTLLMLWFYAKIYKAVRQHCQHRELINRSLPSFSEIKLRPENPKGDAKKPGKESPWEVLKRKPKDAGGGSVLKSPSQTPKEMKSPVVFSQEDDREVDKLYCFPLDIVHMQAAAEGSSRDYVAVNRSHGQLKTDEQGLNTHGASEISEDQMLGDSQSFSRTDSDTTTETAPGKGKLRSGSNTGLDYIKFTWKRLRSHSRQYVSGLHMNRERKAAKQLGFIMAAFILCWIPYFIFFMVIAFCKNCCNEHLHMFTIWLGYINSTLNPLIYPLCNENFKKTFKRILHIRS
Method: as §1

CB1 = biological target: T4, CB1 (Homo sapiens, UniProt P21554); assay: Bioprofiling 6pt Ag CB1 CHO; format: cell-based; conditions: agonist readout
T4 construct: expressed in transfected cells; host or cells: CHO
T4 sequence (P21554 whole entry): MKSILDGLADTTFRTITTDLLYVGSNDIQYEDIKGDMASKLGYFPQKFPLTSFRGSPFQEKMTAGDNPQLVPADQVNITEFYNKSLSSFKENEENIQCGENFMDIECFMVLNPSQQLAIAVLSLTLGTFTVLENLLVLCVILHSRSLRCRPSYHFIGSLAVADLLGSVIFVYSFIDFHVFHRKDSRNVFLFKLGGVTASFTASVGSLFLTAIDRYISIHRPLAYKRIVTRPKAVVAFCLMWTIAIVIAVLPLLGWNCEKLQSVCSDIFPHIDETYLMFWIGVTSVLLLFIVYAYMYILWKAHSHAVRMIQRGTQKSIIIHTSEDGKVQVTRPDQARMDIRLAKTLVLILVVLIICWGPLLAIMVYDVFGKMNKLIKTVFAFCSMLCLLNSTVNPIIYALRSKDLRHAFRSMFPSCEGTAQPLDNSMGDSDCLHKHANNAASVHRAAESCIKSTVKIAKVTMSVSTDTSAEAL
Method: as §1

5-HT2A = biological target: T5, 5-HT2A (Homo sapiens, UniProt P28223); assay: Bioprofiling 6pt Antag 5-HT2A CHO; format: cell-based; conditions: antagonist readout vs Serotonin (5-HT)
T5 construct: expressed in transfected cells; host or cells: CHO
T5 sequence (P28223 whole entry): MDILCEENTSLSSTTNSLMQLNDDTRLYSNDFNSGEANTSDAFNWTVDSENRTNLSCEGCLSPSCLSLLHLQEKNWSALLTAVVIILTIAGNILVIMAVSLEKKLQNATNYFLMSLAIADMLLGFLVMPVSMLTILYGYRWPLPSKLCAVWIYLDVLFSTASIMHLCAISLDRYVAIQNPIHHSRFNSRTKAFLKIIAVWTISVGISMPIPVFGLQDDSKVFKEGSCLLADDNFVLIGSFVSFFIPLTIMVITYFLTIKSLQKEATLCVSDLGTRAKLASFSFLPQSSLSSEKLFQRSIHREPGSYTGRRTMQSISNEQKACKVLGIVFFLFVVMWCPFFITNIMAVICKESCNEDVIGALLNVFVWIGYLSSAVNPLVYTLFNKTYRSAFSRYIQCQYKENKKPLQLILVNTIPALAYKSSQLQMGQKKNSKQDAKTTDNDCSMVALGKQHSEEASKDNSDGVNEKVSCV
Method: as §1

MRC-5 cells = assay: MRC-5 cytotoxicity; format: cell-based; conditions: for IC50: Homo sapiens, MRC5, panel sheet, average, read-out: IC-50 MRC-5 cells; for CC50: S1 Data
MRC-5 cytotoxicity = format: cell-based; conditions: human, MRC-5 cells; S1 Data
[4] = system: PMM (Primary Mouse Macrophages); assay: Cytotoxicity on primary peritoneal mouse macrophages; format: cell-based; conditions: Mus musculus, Macrophage
Summary of the method: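 Host cells were peritoneal macrophages from Swiss mice, harvested after 2 days of starch stimulation and kept in RPMI-1640 with 5% FCS at 37 °C, 5% CO2. Compounds were tested in 4-fold dilutions from 64 μM, with final DMSO below 1%.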

P2Y = assay: Bioprofiling 6pt Antag P2Y CHO; format: cell-based; conditions: antagonist readout vs ATP; read-out: Bioprofiling 6pt Antag P2Y CHO Hamster IC50
Method: as §1

Plasma protein binding = format: in vitro ADME; conditions: mouse, pH 7.4, % bound, read-out: Mouse PPB (converted)
Method: For plasma protein binding, pooled plasma was thawed in a water bath at 37°C and centrifuged at 4,000 rpm for 5 min to remove any clots. The pH value was measured and adjusted to 7.4, if necessary. RPMI medium (pH 7.4) supplemented with 10% fetal calf serum was used. Working solutions (400 μM) of test compounds were prepared by diluting appropriate volume of the stock solutions with DMSO. Working solutions (400 μM) were spiked into plasma to achieve 2 μM final concentrations as loading solutions. The concentration of organic solvent in the final solutions was 0.5% DMSO. The dialysis instrument was assembled following manufacturer’s instructions. Aliquots of loading solution were loaded in triplicate to the donor side of each dialysis well and dialyzed against an equal volume of dialysis buffer. The plate was shaken and incubated for 6 hours in a humidified incubator with 5% CO2 at 37°C. At the end of dialysis, aliquots of dialysate and retentate were removed into sample collection plates. Each sample was matched with an opposite blank buffer or plasma, with a ratio of matrix:dialysis buffer of 50:50 (v:v) in each well and participated with 500μL of stop solution (50% acetonitrile/methanol; internal standards—200 ng/mL tolbutamide, labetalol and 50 ng/mL metformin). All sample collection plates were rotated at 800 rpm for 5 min to mix samples and centrifuged at 20°C, 4000 rpm for 20 min. Aliquots of supernatant of all the samples were removed and injected into LC-MS/MS. Results were calculated as the percentage of remaining parent compound in plasma or medium after incubation.

Opioid mu = biological target: T6, Opioid mu (Homo sapiens, UniProt P35372); assay: Bioprofiling 6pt Antag Opioid mu CHO; format: cell-based; conditions: antagonist readout vs DAMGO
T6 construct: expressed in transfected cells; host or cells: CHO
T6 sequence (P35372 whole entry): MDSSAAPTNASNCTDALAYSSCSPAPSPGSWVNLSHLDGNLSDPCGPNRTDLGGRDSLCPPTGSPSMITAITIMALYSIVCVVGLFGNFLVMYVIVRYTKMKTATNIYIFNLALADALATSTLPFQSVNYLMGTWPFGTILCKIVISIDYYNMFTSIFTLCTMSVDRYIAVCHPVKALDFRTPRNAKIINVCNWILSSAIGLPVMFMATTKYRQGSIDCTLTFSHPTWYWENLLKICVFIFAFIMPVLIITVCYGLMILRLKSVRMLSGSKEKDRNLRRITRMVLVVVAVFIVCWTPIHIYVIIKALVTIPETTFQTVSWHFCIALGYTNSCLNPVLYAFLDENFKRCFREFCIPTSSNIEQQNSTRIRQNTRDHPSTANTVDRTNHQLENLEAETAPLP
Method: as §1

[5] = read-out: IC-50 PMM (Primary Mouse Macrophages)

Compound	IC50 (D2L [1])	IC50 (M2)	EC50 (D2L [2])	microsomal CLint at 0.5 μM [3]	IC50 (H1)	EC50 (CB1)	IC50 (5-HT2A)	IC50 (MRC-5 cells)	CC50 (MRC-5 cytotoxicity)	IC50 [4, 5]	IC50 ([4]; read-out: PMM IC50)	IC50 (P2Y)	fraction unbound at 6 h, 2 μM (Plasma protein binding)	IC50 (Opioid mu)	CC50 (MRC-5 cells)
Cn1nccc1C(=O)Nc1nc2ccc(C#N)cc2n1CC(C)(C)C [Compound 29, O=C(Nc1n(CC(C)(C)C)c(c2n1)cc(C#N)cc2)c3n(C)ncc3]	> 10 µM	> 10 µM	> 10 µM	25 µL/min/mg	> 10 µM	> 10 µM	> 10 µM	> 64 µM	14.9 µM	49.3 µM	27.4 µM	> 10 µM	0.029	> 10 µM	
Cn1nccc1C(=O)Nc1nc2ccc(C#N)cc2n1CC(F)(F)F [Compound 30, O=C(c1ccnn1C)Nc2nc(ccc(C#N)c3)c3n2CC(F)(F)F]	> 10 µM	> 10 µM	> 10 µM	17 µL/min/mg	> 10 µM	> 10 µM	> 10 µM		12.8 µM		32 µM	> 10 µM	0.042	> 10 µM	
Cn1nc(C(F)(F)F)cc1C(=O)Nc1nc2ccc(C#N)cc2n1CC(F)(F)F [Compound 39, O=C(c1cc(C(F)(F)F)nn1C)Nc2nc(ccc(C#N)c3)c3n2CC(F)(F)F]	> 10 µM	> 10 µM	> 10 µM	20 µL/min/mg	> 10 µM	> 10 µM	> 10 µM	14.7 µM	7.87 µM	34.3 µM	1.26 µM	> 10 µM	0.006	> 10 µM	
COc1ccc(C(=O)Nc2nc3ccc(C#N)cc3n2CC(F)(F)F)cn1 [Compound 43, O=C(c1ccc(OC)nc1)Nc2nc(ccc(C#N)c3)c3n2CC(F)(F)F]	> 10 µM	> 10 µM	> 10 µM		> 10 µM	> 10 µM	> 10 µM		> 64 µM		32 µM	> 10 µM		> 10 µM	
N#Cc1ccc2nc(NC(=O)c3ccnc(C(F)(F)F)c3)n(CC(F)(F)F)c2c1 [Compound 44, O=C(c1ccnc(C(F)(F)F)c1)Nc2nc(ccc(C#N)c3)c3n2CC(F)(F)F]	> 10 µM	> 10 µM	> 10 µM	30 µL/min/mg	> 10 µM	> 10 µM	> 10 µM				4 µM	> 10 µM	0.008	> 10 µM	> 64 µM
N#Cc1ccc2nc(NC(=O)c3ccc(C(F)(F)F)nc3)n(CC(F)(F)F)c2c1 [Compound 45, O=C(c1ccc(C(F)(F)F)nc1)Nc2nc(ccc(C#N)c3)c3n2CC(F)(F)F]	> 10 µM	> 10 µM	> 10 µM		> 10 µM	> 10 µM	> 10 µM				8 µM	> 10 µM		> 10 µM	> 64 µM
